# Target: T1, AKT1 (Homo sapiens, UniProt P31749)
# T1 construct: purchased Upstate 14-276
# Test: HTS ATP-utilizing enzyme assay, off-chip mobility-shift (Caliper HTS 250)
# Type: biochemical
# Conditions: kinase named = inhibitory activity/selectivity; test compound 10 μM; active = greater than three-sigma from mean
# Procedure, shortened: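 AKT1 activity was measured by off-chip mobility shift (Caliper HTS 250) as the ratio of peptide substrate to phosphorylated product. Test compound was at 10 μM, with 2.5 h incubation at 20–22° C. EDTA wells served as 100% control and DMSO wells as 0%. Hits were called at three-sigma limits.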
# T1 sequence (P31749 whole entry): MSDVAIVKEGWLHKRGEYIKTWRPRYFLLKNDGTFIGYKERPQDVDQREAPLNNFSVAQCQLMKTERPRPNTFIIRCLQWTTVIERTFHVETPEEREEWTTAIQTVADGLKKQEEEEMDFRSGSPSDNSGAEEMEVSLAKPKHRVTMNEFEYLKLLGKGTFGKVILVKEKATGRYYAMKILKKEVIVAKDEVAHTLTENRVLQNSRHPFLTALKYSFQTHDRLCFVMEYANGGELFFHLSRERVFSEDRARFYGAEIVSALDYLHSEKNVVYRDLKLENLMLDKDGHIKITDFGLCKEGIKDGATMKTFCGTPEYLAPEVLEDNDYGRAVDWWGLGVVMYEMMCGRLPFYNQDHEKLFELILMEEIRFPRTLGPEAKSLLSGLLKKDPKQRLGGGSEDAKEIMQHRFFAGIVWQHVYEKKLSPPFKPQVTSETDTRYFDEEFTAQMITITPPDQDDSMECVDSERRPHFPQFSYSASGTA
row,Structure (SMILES),Activity
1,COc1ccc2oc(-c3csc(N(CCCN4CCOCC4)C(=O)c4cccs4)n3)cc2c1 [N-(4-(5-methoxybenzofuran-2-yl)thiazol-2-yl)-N-(3-morpholinopropyl)thiophene-2-carboxamide],AKT1
2,Cc1c(-c2csc(N(CCCN3CCOCC3)C(=O)c3cccs3)n2)cnn1-c1ccccc1 [N-(4-(5-methyl-1-phenyl-1H-pyrazol-4-yl)thiazol-2-yl)-N-(3-morpholinopropyl)thiophene-2-carboxamide],AKT1
3,Cc1ccc(-c2csc(N(CCCN3CCOCC3)C(=O)c3cccs3)n2)s1 [N-(4-(5-methylthiophen-2-yl)thiazol-2-yl)-N-(3-morpholinopropyl)thiophene-2-carboxamide],AKT1
4,COc1ccc(-c2csc(N(CCCN3CCOCC3)C(=O)c3cccs3)n2)cn1 [N-(4-(6-methoxypyridin-3-yl)thiazol-2-yl)-N-(3-morpholinopropyl)thiophene-2-carboxamide],AKT1
5,COc1cccc2cc(-c3csc(N(CCCN4CCOCC4)C(=O)c4cccs4)n3)oc12 [N-(4-(7-methoxybenzofuran-2-yl)thiazol-2-yl)-N-(3-morpholinopropyl)thiophene-2-carboxamide],AKT1
6,O=C(c1cccs1)N(CCCN1CCOCC1)c1nc(-c2csc3ccccc23)cs1 [N-(4-(benzo[b]thiophen-3-yl)thiazol-2-yl)-N-(3-morpholinopropyl)thiophene-2-carboxamide],AKT1
7,"O=C(c1cccs1)N(CCCN1CCOCC1)c1nc(-c2ccc3c(c2)OCO3)cs1 [N-(4-(benzo[d][1,3]dioxol-5-yl)thiazol-2-yl)-N-(3-morpholinopropyl)thiophene-2-carboxamide]",AKT1
8,O=C(c1cccs1)N(CCCN1CCOCC1)c1nc(-c2nc3ccccc3s2)cs1 [N-(4-(benzo[d]thiazol-2-yl)thiazol-2-yl)-N-(3-morpholinopropyl)thiophene-2-carboxamide],AKT1
9,Cn1cccc1C(=O)N(CCCN1CCCC1=O)c1nc(-c2cc3ccccc3o2)cs1 [N-(4-(benzofuran-2-yl)thiazol-2-yl)-1-methyl-N-(3-(2-oxopyrrolidin-1-yl)propyl)-1H-pyrrole-2-carboxamide],AKT1
10,"O=C(CC1NC(=O)NC1=O)NCCCN(C(=O)c1cccs1)c1nc(-c2cc3ccccc3o2)cs1 (stereo not shown) [N-(4-(benzofuran-2-yl)thiazol-2-yl)-N-(3-(2-(2,5-dioxoimidazolidin-4-yl)acetamido)propyl)thiophene-2-carboxamide]",AKT1
11,CN(C)CCNC(=O)CCN(C(=O)c1cccs1)c1nc(-c2cc3ccccc3o2)cs1 [N-(4-(benzofuran-2-yl)thiazol-2-yl)-N-(3-(2-(dimethylamino)ethylamino)-3-oxopropyl)thiophene-2-carboxamide],AKT1
12,O=C(c1cccs1)N(CCCN1CCCCC1CN1CCCC1)c1nc(-c2cc3ccccc3o2)cs1 (stereo not shown) [N-(4-(benzofuran-2-yl)thiazol-2-yl)-N-(3-(2-(pyrrolidin-1-ylmethyl)piperidin-1-yl)propyl)thiophene-2-carboxamide],AKT1
13,O=C(CN1CCOCC1)NCCCN(C(=O)c1cccs1)c1nc(-c2cc3ccccc3o2)cs1 [N-(4-(benzofuran-2-yl)thiazol-2-yl)-N-(3-(2-morpholinoacetamido)propyl)thiophene-2-carboxamide],AKT1
14,O=C1CCCN1CCCN(C(=O)c1ccco1)c1nc(-c2cc3ccccc3o2)cs1 [N-(4-(benzofuran-2-yl)thiazol-2-yl)-N-(3-(2-oxopyrrolidin-1-yl)propyl)furan-2-carboxamide],AKT1
15,CCN(CC)C1CCN(CCCN(C(=O)c2cccs2)c2nc(-c3cc4ccccc4o3)cs2)C1 (stereo not shown) [N-(4-(benzofuran-2-yl)thiazol-2-yl)-N-(3-(3-(diethylamino)pyrrolidin-1-yl)propyl)thiophene-2-carboxamide],AKT1
16,CC(CO)(CO)C(=O)NCCCN(C(=O)c1cccs1)c1nc(-c2cc3ccccc3o2)cs1 [N-(4-(benzofuran-2-yl)thiazol-2-yl)-N-(3-(3-hydroxy-2-(hydroxymethyl)-2-methylpropanamido)propyl)thiophene-2-carboxamide],AKT1
17,O=C(CCN1CCOCC1)NCCCN(C(=O)c1cccs1)c1nc(-c2cc3ccccc3o2)cs1 [N-(4-(benzofuran-2-yl)thiazol-2-yl)-N-(3-(3-morpholinopropanamido)propyl)thiophene-2-carboxamide],AKT1

# Other lines, results leading:
row,Activity,Structure (SMILES)
1,AKT1,CC(CO)NC(=O)CCN(C(=O)c1cccs1)c1nc(-c2cc3ccccc3o2)cs1 (stereo not shown) [N-(4-(benzofuran-2-yl)thiazol-2-yl)-N-(3-(1-hydroxypropan-2-ylamino)-3-oxopropyl)thiophene-2-carboxamide]
2,AKT1,O=C(c1cccs1)N(CCCN1CCCCC1CCO)c1nc(-c2cc3ccccc3o2)cs1 (stereo not shown) [N-(4-(benzofuran-2-yl)thiazol-2-yl)-N-(3-(2-(2-hydroxyethyl)piperidin-1-yl)propyl)thiophene-2-carboxamide]
3,AKT1,O=C(c1cccs1)N(CCCN1CCCCC1CO)c1nc(-c2cc3ccccc3o2)cs1 (stereo not shown) [N-(4-(benzofuran-2-yl)thiazol-2-yl)-N-(3-(2-(hydroxymethyl)piperidin-1-yl)propyl)thiophene-2-carboxamide]
4,AKT1,O=C(c1cccs1)N(CCC(=O)N1CCCC1CO)c1nc(-c2cc3ccccc3o2)cs1 (stereo not shown) [N-(4-(benzofuran-2-yl)thiazol-2-yl)-N-(3-(2-(hydroxymethyl)pyrrolidin-1-yl)-3-oxopropyl)thiophene-2-carboxamide]
5,AKT1,O=C(c1cccs1)N(CCCN1CCCC1CO)c1nc(-c2cc3ccccc3o2)cs1 (stereo not shown) [N-(4-(benzofuran-2-yl)thiazol-2-yl)-N-(3-(2-(hydroxymethyl)pyrrolidin-1-yl)propyl)thiophene-2-carboxamide]
6,AKT1,O=C(CCN(C(=O)c1cccs1)c1nc(-c2cc3ccccc3o2)cs1)NCCO [N-(4-(benzofuran-2-yl)thiazol-2-yl)-N-(3-(2-hydroxyethylamino)-3-oxopropyl)thiophene-2-carboxamide]
7,AKT1,COCCNC(=O)CCN(C(=O)c1cccs1)c1nc(-c2cc3ccccc3o2)cs1 [N-(4-(benzofuran-2-yl)thiazol-2-yl)-N-(3-(2-methoxyethylamino)-3-oxopropyl)thiophene-2-carboxamide]
8,AKT1,O=C1CCCN1CCCN(C(=O)c1cccs1)c1nc(-c2cc3ccccc3o2)cs1 [N-(4-(benzofuran-2-yl)thiazol-2-yl)-N-(3-(2-oxopyrrolidin-1-yl)propyl)thiophene-2-carboxamide]
9,AKT1,CCN(C(C)=O)C1CCN(CCCN(C(=O)c2cccs2)c2nc(-c3cc4ccccc4o3)cs2)C1 (stereo not shown) [N-(4-(benzofuran-2-yl)thiazol-2-yl)-N-(3-(3-(N-ethylacetamido)pyrrolidin-1-yl)propyl)thiophene-2-carboxamide]
10,AKT1,CC(=O)N(C)C1CCN(CCCN(C(=O)c2cccs2)c2nc(-c3cc4ccccc4o3)cs2)C1 (stereo not shown) [N-(4-(benzofuran-2-yl)thiazol-2-yl)-N-(3-(3-(N-methylacetamido)pyrrolidin-1-yl)propyl)thiophene-2-carboxamide]
11,AKT1,CN(C)C1CCN(C(=O)CCN(C(=O)c2cccs2)c2nc(-c3cc4ccccc4o3)cs2)C1 (stereo not shown) [N-(4-(benzofuran-2-yl)thiazol-2-yl)-N-(3-(3-(dimethylamino)pyrrolidin-1-yl)-3-oxopropyl)thiophene-2-carboxamide]
12,AKT1,CN(C)C1CCN(CCCN(C(=O)c2cccs2)c2nc(-c3cc4ccccc4o3)cs2)C1 (stereo not shown) [N-(4-(benzofuran-2-yl)thiazol-2-yl)-N-(3-(3-(dimethylamino)pyrrolidin-1-yl)propyl)thiophene-2-carboxamide]
13,AKT1,O=C(CCN(C(=O)c1cccs1)c1nc(-c2cc3ccccc3o2)cs1)N1CCCC(CO)C1 (stereo not shown) [N-(4-(benzofuran-2-yl)thiazol-2-yl)-N-(3-(3-(hydroxymethyl)piperidin-1-yl)-3-oxopropyl)thiophene-2-carboxamide]
14,AKT1,O=C(c1cccs1)N(CCCN1CCCC(CO)C1)c1nc(-c2cc3ccccc3o2)cs1 (stereo not shown) [N-(4-(benzofuran-2-yl)thiazol-2-yl)-N-(3-(3-(hydroxymethyl)piperidin-1-yl)propyl)thiophene-2-carboxamide]
15,AKT1,O=C(CCN1CCCCC1)NCCCN(C(=O)c1cccs1)c1nc(-c2cc3ccccc3o2)cs1 [N-(4-(benzofuran-2-yl)thiazol-2-yl)-N-(3-(3-(piperidin-1-yl)propanamido)propyl)thiophene-2-carboxamide]
16,AKT1,O=C(CCN(C(=O)c1cccs1)c1nc(-c2cc3ccccc3o2)cs1)N1CCCC(O)C1 (stereo not shown) [N-(4-(benzofuran-2-yl)thiazol-2-yl)-N-(3-(3-hydroxypiperidin-1-yl)-3-oxopropyl)thiophene-2-carboxamide]
17,AKT1,O=C(c1cccs1)N(CCCN1CCCC(O)C1)c1nc(-c2cc3ccccc3o2)cs1 (stereo not shown) [N-(4-(benzofuran-2-yl)thiazol-2-yl)-N-(3-(3-hydroxypiperidin-1-yl)propyl)thiophene-2-carboxamide]
18,AKT1,O=C(CCN(C(=O)c1cccs1)c1nc(-c2cc3ccccc3o2)cs1)N1CCC(O)C1 (stereo not shown) [N-(4-(benzofuran-2-yl)thiazol-2-yl)-N-(3-(3-hydroxypyrrolidin-1-yl)-3-oxopropyl)thiophene-2-carboxamide]
19,AKT1,O=C(c1cccs1)N(CCCN1CCC(O)C1)c1nc(-c2cc3ccccc3o2)cs1 (stereo not shown) [N-(4-(benzofuran-2-yl)thiazol-2-yl)-N-(3-(3-hydroxypyrrolidin-1-yl)propyl)thiophene-2-carboxamide]
20,AKT1,O=C1CN(CCCN(C(=O)c2cccs2)c2nc(-c3cc4ccccc4o3)cs2)CCN1 [N-(4-(benzofuran-2-yl)thiazol-2-yl)-N-(3-(3-oxopiperazin-1-yl)propyl)thiophene-2-carboxamide]

# From US7795290B2 (Genentech, Inc., priority 2004, dated 2010)
